Measured values reported in the NIST ThermoML archive (doi:10.1021/je060170c).

Assay: xn = mol fraction of the nth substance listed
Conditions: 101 kPa, Liquid; for viscosity: Anton Paar Stabinger viscometer

COc1ccccc1 [anisole] + Cc1ccccc1
Conditions	mass density [kg/m3]	speed of sound [m/s]	viscosity [mPa·s]
288.15 K, x1 = 0.1152	886.478	1360.7	0.676
288.15 K, x1 = 0.2132	899.203	1369.9	0.725
288.15 K, x1 = 0.3098	911.684	1379.1	0.77
288.15 K, x1 = 0.4182	925.577	1389.6	0.832
288.15 K, x1 = 0.5267	939.392	1400.4	0.891
288.15 K, x1 = 0.6209	951.306	1410	0.94
288.15 K, x1 = 0.7382	966.034	1421.9	1.014
288.15 K, x1 = 0.8645	981.766	1434.9	1.094
288.15 K, x1 = 0.927	989.474	1441.5	1.138
288.15 K, x1 = 1	998.441	1449.1	1.188
293.15 K, x1 = 0.1152	881.927	1339.1	0.628
293.15 K, x1 = 0.2132	894.629	1347.9	0.671
293.15 K, x1 = 0.3098	907.078	1357.9	0.71
293.15 K, x1 = 0.4182	920.94	1367.2	0.765
293.15 K, x1 = 0.5267	934.732	1377.6	0.818
293.15 K, x1 = 0.6209	946.626	1387.6	0.861
293.15 K, x1 = 0.7382	961.327	1398.7	0.927
293.15 K, x1 = 0.8645	977.029	1412.5	0.999
293.15 K, x1 = 0.927	984.734	1418.9	1.039
293.15 K, x1 = 1	993.653	1428.5	1.084
298.15 K, x1 = 0.1152	877.272	1316.5	0.594
298.15 K, x1 = 0.2132	889.988	1325.8	0.634
298.15 K, x1 = 0.3098	902.448	1335	0.67
298.15 K, x1 = 0.4182	–	1345.3	0.721
298.15 K, x1 = 0.5267	930.133	1356.5	0.769
298.15 K, x1 = 0.6209	942.044	1366.3	0.809
298.15 K, x1 = 0.7382	956.777	1378.8	0.871
298.15 K, x1 = 0.8645	972.508	1392.7	0.94
298.15 K, x1 = 0.927	980.221	1399.6	0.977
298.15 K, x1 = 1	989.15	1408	1.017
303.15 K, x1 = 0.1152	872.541	1295.1	0.557
303.15 K, x1 = 0.2132	885.247	1304.8	0.592
303.15 K, x1 = 0.3098	897.698	1314.4	0.623
303.15 K, x1 = 0.4182	911.571	1325.3	0.667
303.15 K, x1 = 0.5267	925.369	1336.5	0.709
303.15 K, x1 = 0.6209	937.281	1346.4	0.745
303.15 K, x1 = 0.7382	952.012	1358.8	0.802
303.15 K, x1 = 0.8645	967.753	1372.5	0.862
303.15 K, x1 = 0.927	975.465	1379.4	0.895
303.15 K, x1 = 1	984.374	1387.7	0.931

COc1ccccc1 [anisole] + c1ccccc1
Conditions	mass density [kg/m3]	speed of sound [m/s]	viscosity [mPa·s]
288.15 K, x1 = 0.097	897.546	1356.8	0.747
288.15 K, x1 = 0.175	907.884	1364.5	0.777
288.15 K, x1 = 0.274	920.511	1374.4	0.817
288.15 K, x1 = 0.368	932.009	1383.8	0.856
288.15 K, x1 = 0.4971	947.045	1395.2	0.915
288.15 K, x1 = 0.623	960.925	1406.8	0.976
288.15 K, x1 = 0.72	971.118	1418.4	1.027
288.15 K, x1 = 0.8003	979.257	1425.2	1.072
288.15 K, x1 = 0.8895	988.004	1437.5	1.126
288.15 K, x1 = 1	998.441	1449.1	1.188
293.15 K, x1 = 0.097	890.999	1333	0.683
293.15 K, x1 = 0.175	901.497	1340.7	0.71
293.15 K, x1 = 0.274	914.322	1350.8	0.746
293.15 K, x1 = 0.368	926.005	1360.5	0.781
293.15 K, x1 = 0.4971	941.295	1373.9	0.833
293.15 K, x1 = 0.623	955.425	1387.2	0.889
293.15 K, x1 = 0.72	965.807	1397.5	0.936
293.15 K, x1 = 0.8003	974.102	1406.1	0.978
293.15 K, x1 = 0.8895	983.017	1415.9	1.027
293.15 K, x1 = 1	993.649	1428.5	1.084
298.15 K, x1 = 0.097	887.083	1309.3	0.638
298.15 K, x1 = 0.175	897.532	1317	0.664
298.15 K, x1 = 0.274	910.286	1327.1	0.697
298.15 K, x1 = 0.368	921.904	1337	0.73
298.15 K, x1 = 0.4971	937.104	1350.8	0.779
298.15 K, x1 = 0.623	951.156	1364.6	0.831
298.15 K, x1 = 0.72	961.483	1375.5	0.877
298.15 K, x1 = 0.8003	969.734	1384.6	0.918
298.15 K, x1 = 0.8895	978.597	1394.8	0.963
298.15 K, x1 = 1	989.15	1408	1.017
303.15 K, x1 = 0.097	881.745	1286.9	0.601
303.15 K, x1 = 0.175	892.244	1295.4	0.623
303.15 K, x1 = 0.274	905.059	1306.3	0.651
303.15 K, x1 = 0.368	916.731	1316.6	0.679
303.15 K, x1 = 0.4971	932.013	1330.9	0.72
303.15 K, x1 = 0.623	946.146	1345	0.767
303.15 K, x1 = 0.72	956.542	1355.8	0.808
303.15 K, x1 = 0.8003	964.845	1364.9	0.844
303.15 K, x1 = 0.8895	973.764	1375.1	0.883
303.15 K, x1 = 1	984.374	1387.7	0.931

COc1ccccc1 [anisole] + Cc1ccccc1C
Conditions	mass density [kg/m3]	speed of sound [m/s]	viscosity [mPa·s]
288.15 K, x1 = 0.0915	893.348	1395	0.885
288.15 K, x1 = 0.198	905.888	1402.3	0.914
288.15 K, x1 = 0.368	924.439	1409	0.944
288.15 K, x1 = 0.4954	938.936	1415.7	0.979
288.15 K, x1 = 0.6554	957.421	1424.7	1.028
288.15 K, x1 = 0.766	970.279	1431.2	1.066
288.15 K, x1 = 0.868	982.607	1439.4	1.133
288.15 K, x1 = 0.916	988.769	1444.5	1.159
288.15 K, x1 = 0.949	992.756	1447.1	1.172
288.15 K, x1 = 1	998.44	1449.1	1.188
293.15 K, x1 = 0.0915	889.076	1374.4	0.821
293.15 K, x1 = 0.198	900.83	1381.7	0.844
293.15 K, x1 = 0.368	919.973	1388.3	0.868
293.15 K, x1 = 0.4954	934.513	1394.9	0.899
293.15 K, x1 = 0.6554	953.102	1403.9	0.942
293.15 K, x1 = 0.766	966.072	1410.4	0.975
293.15 K, x1 = 0.868	978.09	1418.6	1.035
293.15 K, x1 = 0.916	983.748	1424	1.058
293.15 K, x1 = 0.949	987.635	1426.6	1.072
293.15 K, x1 = 1	993.649	1428.5	1.084
298.15 K, x1 = 0.0915	885.509	1354	0.769
298.15 K, x1 = 0.198	897.159	1359.5	0.79
298.15 K, x1 = 0.368	916.136	1368.6	0.813
298.15 K, x1 = 0.4954	930.569	1375.7	0.841
298.15 K, x1 = 0.6554	948.998	1385.1	0.881
298.15 K, x1 = 0.766	961.882	1391.9	0.914
298.15 K, x1 = 0.868	973.792	1398.6	0.974
298.15 K, x1 = 0.916	979.418	1402	0.996
298.15 K, x1 = 0.949	983.27	1404.3	1.005
298.15 K, x1 = 1	989.104	1408	1.017
303.15 K, x1 = 0.0915	880.756	1333.4	0.718
303.15 K, x1 = 0.198	892.435	1339.3	0.735
303.15 K, x1 = 0.368	911.407	1348.8	0.753
303.15 K, x1 = 0.4954	925.824	1355.9	0.776
303.15 K, x1 = 0.6554	944.269	1365.2	0.811
303.15 K, x1 = 0.766	957.177	1371.8	0.84
303.15 K, x1 = 0.868	969.125	1378.1	0.893
303.15 K, x1 = 0.916	974.761	1381.2	0.912
303.15 K, x1 = 0.949	978.63	1383.3	0.922
303.15 K, x1 = 1	984.372	1386.7	0.931
